Experimental data taken from publication PMC3688708 (PLoS ONE, 2013).
Where a name gives a salt, the structure may show the parent alone. Read-outs that look alike come from different tables or passages of the source.

Assays:
PA63-channel [1] = molecular target: T1, PA63-channel (Bacillus anthracis, UniProt P13423); assay: biochemical; assay type: binding
J774A.1 cells [2] = assay type: cell-based
J774A.1 macrophages = assay type: cell-based; details: for amount of lysed cells (LF-induced cell lysis after acidic pulse): pH 5
J774A.1 cells [3] = details: 100 µM
PA63-channel [4] = molecular target: T1, PA63-channel; assay: biochemical; assay type: binding; remark: listed apart in the source
PA63-channel [5] = molecular target: T1, PA63-channel; details: cited from earlier work
PA63-channel [6] = molecular target: T1, PA63-channel; details: cited from earlier work; remark: listed apart in the source
[7] = read-out: Half saturation constant KS, pH 6

T1 sequence (P13423 197-764 limits assumed): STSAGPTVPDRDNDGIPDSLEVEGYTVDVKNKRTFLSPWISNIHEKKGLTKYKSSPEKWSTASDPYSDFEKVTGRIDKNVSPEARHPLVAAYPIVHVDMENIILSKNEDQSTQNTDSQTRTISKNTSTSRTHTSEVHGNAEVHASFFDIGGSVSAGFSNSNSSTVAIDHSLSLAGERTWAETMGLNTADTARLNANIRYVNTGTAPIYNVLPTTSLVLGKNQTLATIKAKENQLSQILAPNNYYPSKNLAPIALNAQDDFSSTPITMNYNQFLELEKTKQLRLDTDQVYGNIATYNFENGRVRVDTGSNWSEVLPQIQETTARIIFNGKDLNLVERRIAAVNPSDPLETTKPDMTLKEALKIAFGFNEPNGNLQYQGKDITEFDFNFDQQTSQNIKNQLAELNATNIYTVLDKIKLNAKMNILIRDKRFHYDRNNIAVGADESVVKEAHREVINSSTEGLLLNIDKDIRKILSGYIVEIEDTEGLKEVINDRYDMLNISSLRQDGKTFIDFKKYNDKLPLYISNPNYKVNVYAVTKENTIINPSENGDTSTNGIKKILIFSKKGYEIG

O=[N+]([O-])c1cccc(-n2c(-c3ccc(Br)cc3)c[n+]3ccccc23)c1 [HA1495, 1-(3-nitrophenyl)-2-(4-bromophenyl)imidazo[1,2-a]pyridinium bromide]
Kd (PA63-channel [1]; Half saturation constant KS): 3.6 µM
Stability constant K (PA63-channel [1]; pH 6): 274,000 L/mol
protection from lysis by PA63/LF in the medium (J774A.1 cells [2]): moderate inhibitory effect
amount of lysed cells (LF-induced cell lysis after acidic pulse) (J774A.1 macrophages): significantly reduced
cell viability (MTS assay) (J774A.1 cells [3]; 24 h): no effect on cell viability

Clc1ccc(OCn2cc[n+]3ccccc23)c(Cl)c1 [HA 486]
K* (PA63-channel [1]): 38,000 L/mol
Kd (PA63-channel [1]; Half saturation constant KS): 27 µM
Stability constant K (PA63-channel [1]; pH 6): 38,000 L/mol
Kd (PA63-channel [4]): 32 µM
off-rate k-1 (PA63-channel [4]): 3,500 1/s
on-rate constant k1 (PA63-channel [4]): 1.2e+08 M⁻¹ s⁻¹
K (stability constant from ratio k1/k-1) (PA63-channel [4]; pH 6): 34,000 L/mol
k1 (on-rate constant) (PA63-channel [4]; pH 6): 1.2×10^8 L/(molxs)
k-1 (off-rate constant) (PA63-channel [4]; pH 6): 3,500 1/s

Clc1ccc(-n2nnc3ccc4ccccc4[n+]32)c(Cl)c1 [HA 1221]
Kd (PA63-channel [1]; Half saturation constant KS): 170 µM
Stability constant K (PA63-channel [1]; pH 6): 6,000 L/mol

Brc1ccc(-c2csc3cccc[n+]23)cc1 [HA 112]
Kd (PA63-channel [1]; Half saturation constant KS): 57 µM
Stability constant K (PA63-channel [1]; pH 6): 18,500 L/mol

Clc1cc(Cl)c(-n2nnc3cccc[n+]32)c(Cl)c1 [HA 728]
Kd (PA63-channel [1]; Half saturation constant KS): 85 µM
Stability constant K (PA63-channel [1]; pH 6): 11,800 L/mol

O=c1[nH]c2cccc[n+]2c2ccccc12 [HA 47]
Stability constant K (PA63-channel [1]; pH 6): 500 L/mol
Kd (PA63-channel [1]; [7]): 1990 µM

1-(4-chlorophenyl)-2-(4-bromophenyl)imidazo[1,2-a]pyridinium tetrafluoroborate [HA1568]
K* (PA63-channel [1]): 478,000 L/mol
Stability constant K (PA63-channel [1]; pH 6): 478,000 L/mol
Kd (PA63-channel [1]; pH 6, read-out: Half saturation constant KS): 2.7 µM
lethal toxin-treated cells that survived in the presence of the substance (J774A.1 cells [2]): about 80%
protection from lysis by PA63/LF in the medium (J774A.1 cells [2]): protected
off-rate k-1 (PA63-channel [4]): 260 s⁻¹
on-rate constant k1 (PA63-channel [4]): 1.3e+08 M⁻¹ s⁻¹
K (stability constant from ratio k1/k-1) (PA63-channel [4]; pH 6): 511,000 L/mol
k1 (on-rate constant) (PA63-channel [4]; pH 6): 1.3×10^8 L/(molxs)
k-1 (off-rate constant) (PA63-channel [4]; pH 6): 260 s⁻¹
Kd (PA63-channel [4]; pH 6, read-out: KS): 2 µM
viability of J774A.1 cells by MTS-assay after acidic shift with PA63/LF (J774A.1 macrophages): protective effect
amount of lysed cells (LF-induced cell lysis after acidic pulse) (J774A.1 macrophages): significantly reduced
cell viability (MTS assay) (J774A.1 cells [3]; 24 h): no effect on cell viability

O=C(C[n+]1ccccc1Cl)c1ccc([N+](=O)[O-])cc1 [HA 1371]
Kd (PA63-channel [1]; Half saturation constant KS): 310 µM
Stability constant K (PA63-channel [1]; pH 6): 3,200 L/mol

COc1ccc([N+](=O)[O-])cc1-n1nnc2cccc[n+]21 [HA 1212]
Stability constant K (PA63-channel [1]; pH 6): 7,000 L/mol
Kd (PA63-channel [1]; [7]): 150 µM

COc1ccc(-n2c(=S)n(-c3ccc([N+](=O)[O-])cc3)c3cccc[n+]32)cc1 [HA 1885]
Kd (PA63-channel [1]; Half saturation constant KS): 110 µM
Stability constant K (PA63-channel [1]; pH 6): 10,800 L/mol

O=[N+]([O-])c1cccc(-n2c(-c3ccc(Br)cc3)c[n+]3ccccc23)c1 (as salt: bromide) [HA1495, 1-(3-nitrophenyl)-2-(4-bromophenyl)imidazo[1,2-a]pyridinium bromide]
melting point: 176 to 177 °C

O=[N+]([O-])c1ccc(-c2c[n+]3ccccc3n2-c2ccc(O)cc2)cc1 [HA1383, 1-(4-hydroxyphenyl)-2-(4-nitrophenyl)imidazo[1,2-a]pyridinium tetrafluoroborate]
melting point: 171 to 173 °C
K (Lineweaver-Burke plot) (PA63-channel [1]): 740,000 1/M
K* (PA63-channel [1]): 749,000 L/mol
Kd (PA63-channel [1]; Half saturation constant KS): 1.3 µM
Kd (PA63-channel [1]; Half saturation constant Ks): 1.34 µM
protection from lysis by PA63/LF in the medium (J774A.1 cells [2]): moderate inhibitory effect
Kd (PA63-channel [4]): 1.8 µM
off-rate k-1 (PA63-channel [4]): 352 s⁻¹
K (stability constant from ratio k1/k-1) (PA63-channel [4]; pH 6): 560,000 L/mol
k1 (on-rate constant) (PA63-channel [4]; pH 6): 2.1×10^8 L/(molxs)
k-1 (off-rate constant) (PA63-channel [4]; pH 6): 370 s⁻¹
amount of lysed cells (LF-induced cell lysis after acidic pulse) (J774A.1 macrophages): significantly reduced
cell viability (MTS assay) (J774A.1 cells [3]; 7 h): no effect on cell viability
cell viability (MTS assay) (J774A.1 cells [3]; 24 h): slightly decreased

O=c1c2ccccc2[n+]2ccccc2n1Cc1cccc2ccccc12 [HA 1882]
Kd (PA63-channel [1]; Half saturation constant KS): 130 µM
Stability constant K (PA63-channel [1]; pH 6): 7,900 L/mol

Cn1c(COc2ccc(Cl)cc2)n[n+]2ccccc12 [HA 1196]
Kd (PA63-channel [1]; Half saturation constant KS): 260 µM
Stability constant K (PA63-channel [1]; pH 6): 3,800 L/mol

CCN(CC)CCCC(C)Nc1ccnc2cc(Cl)ccc12 (stereo not shown) [Chloroquine]
K (stability constant from ratio k1/k-1) (PA63-channel [5]): 1,030,000 L/mol
k1 (on-rate constant) (PA63-channel [5]): 3.6×10^8 L/(molxs)
k-1 (off-rate constant) (PA63-channel [5]): 350 s⁻¹
Kd (PA63-channel [5]; read-out: KS): 0.97 µM
K* (PA63-channel [6]): 676,000 L/mol
Stability constant K (PA63-channel [6]; pH 6): 676,000 L/mol
Kd (PA63-channel [6]; [7]): 1.5 µM
Kd (PA63-channel [6]; read-out: Half saturation constant Ks): 1.43 µM

CCOC(=O)c1ccc(-n2c(-c3ccc(Br)cc3)c[n+]3cccc(O)c23)cc1 [HA 1504]
Kd (PA63-channel [1]; Half saturation constant KS): 12 µM
Stability constant K (PA63-channel [1]; pH 6): 82,900 L/mol

Clc1ccc(OCn2cn[n+]3ccccc23)c(Cl)c1 [HA 766]
Kd (PA63-channel [1]; Half saturation constant KS): 36 µM
Stability constant K (PA63-channel [1]; pH 6): 29,400 L/mol
